# Measured values published in patent US9861616B2, “Methods for treating respiratory diseases and formulations therefor” (priority 2013, dated 2018).
# Columns and labels:
# P. aeruginosa (PA) = assay: MIC by microdilution, 36 clinical and laboratory strains with known efflux phenotype; format: cell-based
# Procedure: (§1) MICs of 36 clinical and laboratory strains of PA with known efflux phenotype are measured by microdilution in cation-adjusted Muller-Hinton broth (CA-MHB) or in RPMI medium (commonly used in eukaryotic cell culture). Phe-Arg-β-naphthylamide (PaβN, 50 mg/L) and EGTA 5 mM are used to inhibit efflux pumps and alter OM integrity, respectively. P. aeruginosa strain ATCC PAO1 is used as reference. PA12 is a clinical strain overexpressing the 4 main efflux systems (MexAB, MexCD, MexEF, MexXY), PA403 is a laboratory strain deleted in the genes coding for the 4 efflux systems. A series of reference strains or of clinical isolates for which the expression of genes coding for efflux pumps is known is also used for MICs determinations. MICs are measured by microdilution in MH broth or in RPMI medium (used for eukaryotic cells culture) supplemented with 10% of fetal calf serum, or in MH broth supplemented by increasing amounts of serum. EGTA (5 mM) was used as a chelating agent (disrupting outer membrane integrity) and PaβN (50 mg/L) as an unspecific efflux inhibitor.
# P. aeruginosa PA12 = assay: MIC by microdilution with PaβN or EGTA, clinical isolate overexpressing efflux pumps; format: cell-based
# Procedure: as §1
# IL-8 (CXCL8) release = assay: LPS-induced IL-8 (CXCL8) release in PMA-differentiated U937 cells (ELISA); format: cell-based, human
# Procedure: Effects of macrolides on lipopolysaccharide (LPS)-induced CXCL8 release in PMA-differentiated U937 cells. […] LPS-induced CXCL8 release was evaluated by ELISA. Values represent means of three experiments±SEM. ^##p<0.01 (vs. non-treatment control), *p<0.05, **p<0.01 (vs. treatment with LPS only).
# (§2) The human monocytic cell line U937 was obtained from the American Type Culture Collection (ATCC, Rockville, Md.). PBMCs from COPD patients were obtained from Brompton hospital and separated by AccuSPIN (Sigma-Aldrich). Cells were cultured in complete growth medium (RPMI 1640) (Sigma-Aldrich) supplemented with 10% fetal bovine serum (FBS) and 1% L-glutamine at 37° C. in a humidified atmosphere with 5% CO2. U937 cells were differentiated into adherent macrophage-like morphology by exposure to PMA (50 ng/mL) for 48 hrs in complete growth medium. Cell viability was assessed microscopically by trypan blue staining. Cell toxicity was determined by MTT assay as needed. This study was approved by the ethics committee of the Royal Brompton Hospitals, and all subjects gave written informed consent.
# TNFα and IL-8 concentrations in the supernatant of cell cultures were determined by sandwich ELISA according to the manufacturer's instructions (R&D Systems Europe, Abingdon, UK).
# (§3) The results were expressed as the mean±SEM. Comparisons of data in two groups were performed using the Student's t test or the Wilcoxon signed rank test. Multiple comparisons were made by one-way ANOVA with post hoc test (Dunnett's) as appropriate. The difference was considered significant at p<0.05. IC50 values (50% inhibitory concentration) for macrolides for production of cytokines or MMP9 were calculated using Prism 4.0 (GraphPad Software Inc., San Diego, Calif.).
# MMP9 activity = assay: PMA-induced MMP9 activation in U937 cells (gelatin zymography); format: cell-based, human; conditions: read-out: IC50, PMA-induced MMP9 activation
# Procedure: Effects of macrolides on phorbol 12-myristate 13-acetate (PMA)-induced MMP9 activation in U937 cells. […] After 48 h supernatants were collected for zymography. MMP9 enzyme activity was measured by gelatin zymography. Data are expressed relative to standard.
# as §2
# MMP9 enzyme activity was measured by gelatin zymography. Cell culture supernatants were diluted with equal amount of Laemli sample buffer (Bio-Rad, Hertfordshire, UK) and loaded on a Novex® 10% Zymogram (Gelatin) gel (Invitrogen Ltd, Paisley, UK). After electrophoresis, gels were incubated and rinsed with Novex® zymogram renaturing buffer (Invitrogen) for 30 min at room temperature. The gels were then rinsed in Novex® zymogram developing buffer (Invitrogen) for 30 min at room temperature prior to overnight incubation in the developing buffer at 37° C. After incubation, the gels were stained using a Colloidal Blue Staining Kit (Invitrogen) to visualize the zymogen bands.
# as §3
structure (smiles),measurement,setting,value
"CC[C@H]1OC(=O)[C@@](C)(F)C(=O)[C@H](C)[C@@H](O[C@@H]2O[C@H](C)C[C@H](N(C)C)[C@H]2O)[C@](C)(OC)C[C@@H](C)C(=O)[C@H](C)[C@H]2N(CCCCn3cc(-c4cccc(N)c4)nn3)C(=O)O[C@]12C [CEM-101, solithromycin]",difference in MIC in the presence of efflux pump inhibitors,"P. aeruginosa (PA); compared with the other macrolides, Table 2 strains",smaller difference
same,MIC,"P. aeruginosa (PA); strain 1, efflux AB+, MHB",128 µg/mL
same,MIC,"P. aeruginosa (PA); strain 1, efflux AB+, RPMI",2 µg/mL
same,MIC,"P. aeruginosa (PA); strain 2, efflux CD+, MHB",256 µg/mL
same,MIC,"P. aeruginosa (PA); strain 2, efflux CD+, RPMI",8 µg/mL
same,MIC,"P. aeruginosa (PA); strain 3, efflux EF+, MHB",8 µg/mL
same,MIC,"P. aeruginosa (PA); strain 3, efflux EF+, RPMI",1 µg/mL
same,MIC,"P. aeruginosa (PA); strain 4, efflux XY+, MHB",128 µg/mL
same,MIC,"P. aeruginosa (PA); strain 4, efflux XY+, RPMI",4 µg/mL
same,MIC,"P. aeruginosa (PA); strain 11, efflux AB + CD+, MHB",16 µg/mL
same,MIC,"P. aeruginosa (PA); strain 11, efflux AB + CD+, RPMI",2 µg/mL
same,MIC,"P. aeruginosa (PA); strain 12, efflux AB + CD + EF + XY+, MHB",128 µg/mL
same,MIC,"P. aeruginosa (PA); strain 12, efflux AB + CD + EF + XY+, RPMI",4 µg/mL
same,MIC,"P. aeruginosa (PA); strain 16, efflux AB + XY+, MHB",32 µg/mL
same,MIC,"P. aeruginosa (PA); strain 16, efflux AB + XY+, RPMI",4 µg/mL
same,MIC,"P. aeruginosa (PA); strain 21, efflux AB+, MHB",128 µg/mL
same,MIC,"P. aeruginosa (PA); strain 21, efflux AB+, RPMI",4 µg/mL
same,MIC,"P. aeruginosa (PA); strain 22, efflux XY+, MHB",64 µg/mL
same,MIC,"P. aeruginosa (PA); strain 22, efflux XY+, RPMI",4 µg/mL
same,MIC,"P. aeruginosa (PA); strain 40, efflux EF+, MHB",32 µg/mL
same,MIC,"P. aeruginosa (PA); strain 40, efflux EF+, RPMI",4 µg/mL
same,MIC,"P. aeruginosa (PA); strain 41, efflux CD+, MHB",256 µg/mL
same,MIC,"P. aeruginosa (PA); strain 41, efflux CD+, RPMI",4 µg/mL
same,MIC,"P. aeruginosa (PA); strain 48, efflux CD + EF + XY+, MHB",128 µg/mL
same,MIC,"P. aeruginosa (PA); strain 48, efflux CD + EF + XY+, RPMI",4 µg/mL
same,MIC,"P. aeruginosa (PA); strain 49, efflux CD + EF + XY+, MHB",128 µg/mL
same,MIC,"P. aeruginosa (PA); strain 49, efflux CD + EF + XY+, RPMI",4 µg/mL
same,MIC,"P. aeruginosa (PA); strain 63, efflux AB + EF + XY+, MHB",64 µg/mL
same,MIC,"P. aeruginosa (PA); strain 63, efflux AB + EF + XY+, RPMI",4 µg/mL
same,MIC,"P. aeruginosa (PA); strain 68, efflux AB + XY+, MHB",64 µg/mL
same,MIC,"P. aeruginosa (PA); strain 68, efflux AB + XY+, RPMI",4 µg/mL
same,MIC,"P. aeruginosa (PA); strain 133, efflux EF + XY+, MHB",64 µg/mL
same,MIC,"P. aeruginosa (PA); strain 133, efflux EF + XY+, RPMI",4 µg/mL
same,MIC,"P. aeruginosa (PA); strain 156, efflux EF + XY+, MHB",64 µg/mL
same,MIC,"P. aeruginosa (PA); strain 156, efflux EF + XY+, RPMI",2 µg/mL
same,MIC,"P. aeruginosa (PA); strain 168B, efflux CD + XY+, MHB",128 µg/mL
same,MIC,"P. aeruginosa (PA); strain 168B, efflux CD + XY+, RPMI",4 µg/mL
same,MIC,"P. aeruginosa (PA); strain 207, efflux AB + EF + XY+, MHB",32 µg/mL
same,MIC,"P. aeruginosa (PA); strain 207, efflux AB + EF + XY+, RPMI",4 µg/mL
same,MIC,"P. aeruginosa (PA); strain 266B, efflux AB + CD+, MHB",256 µg/mL
same,MIC,"P. aeruginosa (PA); strain 266B, efflux AB + CD+, RPMI",4 µg/mL
same,MIC,"P. aeruginosa (PA); strain 333A, efflux AB + EF+, MHB",128 µg/mL
same,MIC,"P. aeruginosa (PA); strain 333A, efflux AB + EF+, RPMI",2 µg/mL
same,MIC,"P. aeruginosa (PA); strain 335, efflux AB + EF+, MHB",128 µg/mL
same,MIC,"P. aeruginosa (PA); strain 335, efflux AB + EF+, RPMI",2 µg/mL
same,MIC,"P. aeruginosa (PA); strain 391, efflux EF−, MHB",32 µg/mL
same,MIC,"P. aeruginosa (PA); strain 391, efflux EF−, RPMI",2 µg/mL
same,MIC,"P. aeruginosa (PA); strain 392, efflux CD−, MHB",16 µg/mL
same,MIC,"P. aeruginosa (PA); strain 392, efflux CD−, RPMI",1 µg/mL
same,MIC,"P. aeruginosa (PA); strain 394, efflux XY−, MHB",32 µg/mL
same,MIC,"P. aeruginosa (PA); strain 394, efflux XY−, RPMI",4 µg/mL
same,MIC,"P. aeruginosa (PA); strain 395, efflux HI−, MHB",64 µg/mL
same,MIC,"P. aeruginosa (PA); strain 395, efflux HI−, RPMI",2 µg/mL
same,MIC,"P. aeruginosa (PA); strain 396, ompH−, MHB",8 µg/mL
same,MIC,"P. aeruginosa (PA); strain 396, ompH−, RPMI",2 µg/mL
same,MIC,"P. aeruginosa (PA); strain 397, efflux AB−, MHB",2 µg/mL
same,MIC,"P. aeruginosa (PA); strain 397, efflux AB−, RPMI",1 µg/mL
same,MIC,"P. aeruginosa (PA); strain 398, efflux CD−, MHB",4 µg/mL
same,MIC,"P. aeruginosa (PA); strain 398, efflux CD−, RPMI",2 µg/mL
same,MIC,"P. aeruginosa (PA); strain 399, efflux AB − EF−, MHB",8 µg/mL
same,MIC,"P. aeruginosa (PA); strain 399, efflux AB − EF−, RPMI",1 µg/mL
same,MIC,"P. aeruginosa (PA); strain 400, efflux XY−, MHB",4 µg/mL
same,MIC,"P. aeruginosa (PA); strain 400, efflux XY−, RPMI",1 µg/mL
same,MIC,"P. aeruginosa (PA); strain 401, ompH−, MHB",2 µg/mL
same,MIC,"P. aeruginosa (PA); strain 401, ompH−, RPMI",2 µg/mL
same,MIC,"P. aeruginosa (PA); strain 403, efflux AB − CD − EF − XY−, MHB",4 µg/mL
same,MIC,"P. aeruginosa (PA); strain 403, efflux AB − CD − EF − XY−, RPMI",1 µg/mL
same,MIC,"P. aeruginosa (PA); strain 405, efflux AB − CD − EF − XY−, MHB",4 µg/mL
same,MIC,"P. aeruginosa (PA); strain 405, efflux AB − CD − EF − XY−, RPMI",1 µg/mL
same,MIC,"P. aeruginosa (PA); strain 434, efflux AB + CD + XY+, MHB",128 µg/mL
same,MIC,"P. aeruginosa (PA); strain 434, efflux AB + CD + XY+, RPMI",8 µg/mL
same,MIC,"P. aeruginosa (PA); strain PAO1, REFERENCE, MHB",128 µg/mL
same,MIC,"P. aeruginosa (PA); strain PAO1, REFERENCE, RPMI",4 µg/mL
same,MIC,"P. aeruginosa PA12; PA12, CA-MHB, EGTA 5 mM",16 µg/mL
same,MIC,"P. aeruginosa PA12; PA12, CA-MHB, PaβN 50 mg/L",4 µg/mL
same,MIC,"P. aeruginosa PA12; PA12, CA-MHB, control conditions (CT)",32 µg/mL
same,MIC,"P. aeruginosa PA12; PA12, RPMI, EGTA 5 mM",1 µg/mL
same,MIC,"P. aeruginosa PA12; PA12, RPMI, PaβN 50 mg/L",4 µg/mL
same,MIC,"P. aeruginosa PA12; PA12, RPMI, control conditions (CT)",4 µg/mL
same,IC50,"IL-8 (CXCL8) release; PMA-differentiated U937 cells, read-out: IC50, LPS-induced IL-8 (CXCL8) release",78.2 ± 9.5 µM
same,effect on CXCL8 production,IL-8 (CXCL8) release; at 100 μM,significantly inhibited
same,IC50,MMP9 activity,14.9 ± 3.1 µM
